Test results published in the NIST ThermoML archive (doi:10.1021/acs.jced.6b00121).

Test: xn = mol fraction of the nth substance listed
Conditions: 100 kPa, Liquid; for mass density: Vibrating tube method; for viscosity: Falling or rolling sphere viscometry

CCCCCCCCCCC [undecane] + CCCCCO
Conditions | mass density, 343.15 K [kg/m3] | mass density, 348.15 K [kg/m3] | mass density, 353.15 K [kg/m3] | mass density, 358.15 K [kg/m3] | mass density, 363.15 K [kg/m3] | viscosity, 348.15 K [mPa·s] | viscosity, 353.15 K [mPa·s] | viscosity, 358.15 K [mPa·s] | viscosity, 363.15 K [mPa·s]
x1 = 0.0999 | – | 758.01 | 753.8 | 749.51 | 745.17 | 0.889 | 0.81 | 0.744 | 0.68
x1 = 0.2 | – | 746.09 | 741.87 | 737.58 | 733.23 | 0.784 | 0.72 | 0.663 | 0.614
x1 = 0.3026 | – | 735.95 | 731.74 | 727.46 | 723.13 | 0.701 | 0.649 | 0.602 | 0.56
x1 = 0.4001 | – | 727.83 | 723.64 | 719.38 | 715.08 | 0.659 | 0.615 | 0.577 | 0.542
x1 = 0.5022 | – | 720.65 | 716.49 | 712.26 | 708 | 0.624 | 0.585 | 0.551 | 0.519
x1 = 0.5976 | 719 | 714.91 | 710.78 | 706.59 | 702.37 | 0.595 | 0.56 | 0.528 | 0.5
x1 = 0.6984 | 713.75 | 709.7 | 705.61 | 701.47 | 697.3 | 0.578 | 0.545 | 0.517 | 0.49
x1 = 0.801 | 709.22 | 705.21 | 701.17 | 697.1 | 692.99 | 0.561 | 0.531 | 0.504 | 0.48
x1 = 0.8822 | 706.13 | 702.19 | 698.22 | 694.22 | 690.22 | 0.556 | 0.528 | 0.502 | 0.48
x1 = 1 | 703.22 | 699.47 | 695.72 | 691.96 | 688.18 | 0.549 | 0.522 | 0.497 | 0.475
